This passage reports EC50 results from patent US20240336608A1, “IL4I1 INHIBITORS AND METHODS OF USE” (Merck Sharp & Dohme LLC, priority 2023, published 2024).

In the experiment the target is T1, recombinant IL4I1 (Homo sapiens, UniProt Q96RQ9).
T1 construct: purchased R&D Systems 5684-AO-020
T1 sequence (Q96RQ9 22-567): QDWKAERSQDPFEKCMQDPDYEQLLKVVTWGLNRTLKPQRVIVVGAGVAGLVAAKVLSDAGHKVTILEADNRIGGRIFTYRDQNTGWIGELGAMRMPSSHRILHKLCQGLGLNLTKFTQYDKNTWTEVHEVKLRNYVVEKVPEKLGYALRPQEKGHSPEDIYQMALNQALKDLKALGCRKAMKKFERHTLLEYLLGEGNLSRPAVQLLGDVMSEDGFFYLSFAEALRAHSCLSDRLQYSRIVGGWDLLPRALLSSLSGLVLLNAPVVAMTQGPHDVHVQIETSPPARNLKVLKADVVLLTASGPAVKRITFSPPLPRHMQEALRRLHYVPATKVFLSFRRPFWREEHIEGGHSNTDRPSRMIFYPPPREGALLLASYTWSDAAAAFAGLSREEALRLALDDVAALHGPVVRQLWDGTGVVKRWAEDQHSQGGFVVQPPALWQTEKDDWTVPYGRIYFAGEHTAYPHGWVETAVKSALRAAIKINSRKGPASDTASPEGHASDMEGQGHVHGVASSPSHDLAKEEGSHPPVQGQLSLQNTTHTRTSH
The experiment is described as follows: IL4I1 Enzymatic Assay (Amplex Red/HRP coupled detection of H2O2, fluorescence). The experiment is classed as biochemical. Particulars: 1 nM recombinant IL4I1; four-hour pre-incubation with compound; 1 mM each Phe, Tyr, Trp; ten-point titration. Put shortly:
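H2O2 output was coupled to resorufin fluorescence (ex 544/em 590) via 0.05 mM Amplex Red and 1 U/mL HRP. Substrate: Phe, Tyr, Trp at 1 mM each; enzyme 1 nM, 4 h compound pre-incubation, 120 min reaction, pH 7.0 Hepes. EC50 by nonlinear four-parameter regression, 1:3 ten-point titration.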
In general, EC50 refers to the concentration that produces a half-maximal response. Turning to `Cn1cnc(C(=O)NCc2nnc(-c3ccccc3)s2)c1` [Example 32, 1-methyl-N-((5-phenyl-1,3,4-thiadiazol-2-yl)methyl)-1H-imidazole-4-carboxamide], the EC50 was determined as 77 nM. The value for `O=C(NCc1nnc(-c2ccccc2)s1)c1cc(C2CC2)n[nH]1` [Example 33, 3-cyclopropyl-N-[(5-phenyl-1,3,4-thiadiazol-2-yl)methyl]-1H-pyrazole-5-carboxamide] was 170 nM; that for `O=C(NCc1nnc(-c2ccccc2)s1)c1cc2n(n1)CCSC2` [Example 34, N-[(5-phenyl-1,3,4-thiadiazol-2-yl)methyl]-6,7-dihydro-4H-pyrazolo[5,1-c][1,4]thiazine-2-carboxamide] was 453 nM; that for `O=C(NCc1nnc(-c2ccccc2)s1)c1cc(C2CC2)on1` [Example 35, 5-cyclopropyl-N-[(5-phenyl-1,3,4-thiadiazol-2-yl)methyl]isoxazole-3-carboxamide] was 8 nM. As to `Cc1cc(C(=O)NCc2nnc(-c3ccccc3)s2)c(C)o1` [Example 36, 2,5-dimethyl-N-[(5-phenyl-1,3,4-thiadiazol-2-yl)methyl]furan-3-carboxamide], the 50% effective concentration (EC50) came out at 487 nM. As for `Cc1csc(C(=O)NCc2nnc(-c3ccccc3)s2)c1Cl` [Example 37, 3-chloro-4-methyl-N-[(5-phenyl-1,3,4-thiadiazol-2-yl)methyl]thiophene-2-carboxamide], the EC50 was determined as 12 nM. For `Cc1cc(C(=O)NCc2nnc(-c3ccccc3)s2)oc1C` [Example 38, 4,5-dimethyl-N-[(5-phenyl-1,3,4-thiadiazol-2-yl)methyl]furan-2-carboxamide], the concentration giving a half-maximal response (EC50) is 890 nM. Under `CCCc1cc(C(=O)NCc2nnc(-c3ccccc3)s2)no1` [Example 39, N-[(5-phenyl-1,3,4-thiadiazol-2-yl)methyl]-5-propyl-isoxazole-3-carboxamide] stands 3 nM; under `Cc1oc(C)c(C(=O)NCc2nnc(-c3ccccc3)s2)c1C` [Example 40, 2,4,5-trimethyl-N-[(5-phenyl-1,3,4-thiadiazol-2-yl)methyl]furan-3-carboxamide], 266 nM. The value for `COc1c(C(=O)NCc2nnc(-c3ccccc3)s2)csc1Cl` [Example 41, 5-chloro-4-methoxy-N-[(5-phenyl-1,3,4-thiadiazol-2-yl)methyl]thiophene-3-carboxamide] was 59 nM; that for `Cc1n[nH]c(C(=O)NCc2nnc(-c3ccccc3)s2)c1C` [Example 42, 3,4-dimethyl-N-((5-phenyl-1,3,4-thiadiazol-2-yl)methyl)-1H-pyrazole-5-carboxamide] was 458 nM; that for `CCn1cc(C(=O)NCc2nnc(-c3ccccc3)s2)cn1` [Example 43, 1-ethyl-N-[(5-phenyl-1,3,4-thiadiazol-2-yl)methyl]pyrazole-4-carboxamide] was 177 nM. Under `O=C(NCc1nnc(-c2ccccc2)s1)c1c[nH]nc1C(F)(F)F` [Example 44, N-[(5-phenyl-1,3,4-thiadiazol-2-yl)methyl]-3-(trifluoromethyl)-1H-pyrazole-4-carboxamide] stands 770 nM; under `COCc1ccc(C(=O)NCc2nnc(-c3ccccc3)s2)o1` [Example 45, 5-(methoxymethyl)-N-[(5-phenyl-1,3,4-thiadiazol-2-yl)methyl]furan-2-carboxamide], 552 nM; under `Cc1[nH]nc(C(=O)NCc2nnc(-c3ccccc3)s2)c1F` [Example 46, 4-fluoro-5-methyl-N-[(5-phenyl-1,3,4-thiadiazol-2-yl)methyl]-1H-pyrazole-3-carboxamide], 92 nM.

As to `CCc1[nH]nc(C(=O)NCc2nnc(-c3ccccc3)s2)c1C` [Example 47, 5-ethyl-4-methyl-N-((5-phenyl-1,3,4-thiadiazol-2-yl)methyl)-1H-pyrazole-3-carboxamide], the EC50 was determined as 155 nM. Under `O=C(NCc1nnc(-c2ccccc2)s1)c1cc2n(n1)CCC2` [Example 48, N-[(5-phenyl-1,3,4-thiadiazol-2-yl)methyl]-5,6-dihydro-4H-pyrrolo[1,2-b]pyrazole-2-carboxamide] stands 237 nM; under `CC(C)c1cc(C(=O)NCc2nnc(-c3ccccc3)s2)on1` [Example 49, 3-isopropyl-N-[(5-phenyl-1,3,4-thiadiazol-2-yl)methyl]isoxazole-5-carboxamide], 22 nM; under `Cc1cc(C(=O)NCc2nnc(-c3ccccc3)s2)c(C)n1C` [Example 50, 1,2,5-trimethyl-N-[(5-phenyl-1,3,4-thiadiazol-2-yl)methyl]pyrrole-3-carboxamide], 537 nM. Under `Cn1ccc(C(=O)NCc2nnc(-c3ccccc3)s2)c1` [Example 51, 1-methyl-N-[(5-phenyl-1,3,4-thiadiazol-2-yl)methyl]pyrrole-3-carboxamide] stands 118 nM. `CCn1ccc(C(=O)NCc2nnc(-c3ccccc3)s2)n1` [Example 52, 1-ethyl-N-[(5-phenyl-1,3,4-thiadiazol-2-yl)methyl]pyrazole-3-carboxamide]: the 50% effective concentration (EC50) was found to be 128 nM. For the compound `Cc1c(C(=O)NCc2nnc(-c3ccccc3)s2)oc2ccccc12` [Example 53, 3-methyl-N-[(5-phenyl-1,3,4-thiadiazol-2-yl)methyl]benzofuran-2-carboxamide], the concentration for a half-maximal effect (EC50) is 357 nM. As for `Cn1c(C(=O)NCc2nnc(-c3ccccc3)s2)cc2ccccc21` [Example 54, 1-methyl-N-((5-phenyl-1,3,4-thiadiazol-2-yl)methyl)-1H-indole-2-carboxamide], the EC50 worked out at 322 nM. Under `Cc1nonc1C(=O)NCc1nnc(-c2ccccc2)s1` [Example 55, 4-methyl-N-[(5-phenyl-1,3,4-thiadiazol-2-yl)methyl]-1,2,5-oxadiazole-3-carboxamide] stands 276 nM; under `O=C(NCc1nnc(-c2ccccc2)s1)c1cc2c(o1)CCNC2=O` [Example 56, 4-oxo-N-[(5-phenyl-1,3,4-thiadiazol-2-yl)methyl]-6,7-dihydro-5H-furo[3,2-c]pyridine-2-carboxamide], 234 nM; under `Cc1cc(C)c(C(=O)NCc2nnc(-c3ccccc3)s2)o1` [Example 57, 3,5-dimethyl-N-[(5-phenyl-1,3,4-thiadiazol-2-yl)methyl]furan-2-carboxamide], 974 nM. Under `COc1cc(C(=O)NCc2nnc(-c3ccccc3)s2)on1` [Example 58, 3-methoxy-N-[(5-phenyl-1,3,4-thiadiazol-2-yl)methyl]isoxazole-5-carboxamide] stands 92 nM; under `O=C(NCc1nnc(-c2ccccc2)s1)c1cn(CC(F)(F)F)nn1` [Example 60, N-((5-phenyl-1,3,4-thiadiazol-2-yl)methyl)-1-(2,2,2-trifluoroethyl)-1H-1,2,3-triazole-4-carboxamide], 4 nM. The value for `O=C(NCc1nnc(-c2ccccc2)s1)c1cn(C2CC(F)(F)C2)nn1` [Example 61, 1-(3,3-difluorocyclobutyl)-N-((5-phenyl-1,3,4-thiadiazol-2-yl)methyl)-1H-1,2,3-triazole-4-carboxamide] was 68 nM.

Regarding `O=C(NCc1nnc(-c2ccccc2)s1)c1cn(CCC(F)(F)F)nn1` [Example 62, N-((5-phenyl-1,3,4-thiadiazol-2-yl)methyl)-1-(3,3,3-trifluoropropyl)-1H-1,2,3-triazole-4-carboxamide], the EC50 was 7 nM. The value for `COCC[C@@H](C)n1cc(C(=O)NCc2nnc(-c3ccccc3)s2)nn1` [Example 65, (R)-1-(4-methoxybutan-2-yl)-N-((5-phenyl-1,3,4-thiadiazol-2-yl)methyl)-1H-1,2,3-triazole-4-carboxamide] was 68 nM; that for `COCC[C@H](C)n1cc(C(=O)NCc2nnc(-c3ccccc3)s2)nn1` [Example 66, (S)-1-(4-methoxybutan-2-yl)-N-((5-phenyl-1,3,4-thiadiazol-2-yl)methyl)-1H-1,2,3-triazole-4-carboxamide] was 221 nM; that for `O=C(NCc1nnc(-c2ccccc2)s1)c1cn(C2COC2)nn1` [Example 67, 1-(oxetan-3-yl)-N-((5-phenyl-1,3,4-thiadiazol-2-yl)methyl)-1H-1,2,3-triazole-4-carboxamide] was 14 nM. As to `O=C(NCc1nnc(-c2ccccc2)s1)c1cn(C2CCC2)nn1` [Example 68, 1-cyclobutyl-N-((5-phenyl-1,3,4-thiadiazol-2-yl)methyl)-1H-1,2,3-triazole-4-carboxamide], the EC50 was determined as 17 nM.

As for `CC(C)(C)OC(=O)N1CC(n2cc(C(=O)NCc3nnc(-c4ccccc4)s3)nn2)C1` [Example 69, tert-butyl 3-(4-(((5-phenyl-1,3,4-thiadiazol-2-yl)methyl)carbamoyl)-1H-1,2,3-triazol-1-yl)azetidine-1-carboxylate], the EC50 worked out at 9 nM.

`NC(=O)Cn1cc(C(=O)NCc2nnc(-c3ccccc3)s2)nn1` [Example 70, 1-(2-amino-2-oxoethyl)-N-((5-phenyl-1,3,4-thiadiazol-2-yl)methyl)-1H-1,2,3-triazole-4-carboxamide]: the EC50 turned out to be 5 nM.
